Source: patent US20260109690A1, “HDAC6 INHIBITORS AND METHOD OF THEIR USE” (Baerenkraft Therapeutics, LLC., priority 2024, published 2026)
Entries after “also recorded” stand apart in the source; their conditions may differ.

Legend:
[1] = tested on: B6SJL.SOD1-G93A transgenic mouse model of amyotrophic lateral sclerosis; assay: ALS mouse model: wire suspension test (inverted screen test); type: in vivo, mice
Experimental: Wire hang test was used to measure the muscle strength of animals. During the test, the animals were placed on the top of a wire lid of a housing cage. Then the lid was inverted and slightly shaken to ensure the grip of animal on the lid. Latency to fall(s) off the lid was recorded. A total of 3 trials were recorded and averaged to analyze the data. A cutoff time of 90 s was used to end the trial.
Note: Behavioral tests were performed once in two weeks, i.e. at week 10, 12, 14 and 16.

HDAC3 = HDAC3 (Homo sapiens, UniProt O15379); assay: HDAC selectivity panel: HDAC3; type: biochemical
Chain of HDAC3 (O15379 whole entry, species assumed): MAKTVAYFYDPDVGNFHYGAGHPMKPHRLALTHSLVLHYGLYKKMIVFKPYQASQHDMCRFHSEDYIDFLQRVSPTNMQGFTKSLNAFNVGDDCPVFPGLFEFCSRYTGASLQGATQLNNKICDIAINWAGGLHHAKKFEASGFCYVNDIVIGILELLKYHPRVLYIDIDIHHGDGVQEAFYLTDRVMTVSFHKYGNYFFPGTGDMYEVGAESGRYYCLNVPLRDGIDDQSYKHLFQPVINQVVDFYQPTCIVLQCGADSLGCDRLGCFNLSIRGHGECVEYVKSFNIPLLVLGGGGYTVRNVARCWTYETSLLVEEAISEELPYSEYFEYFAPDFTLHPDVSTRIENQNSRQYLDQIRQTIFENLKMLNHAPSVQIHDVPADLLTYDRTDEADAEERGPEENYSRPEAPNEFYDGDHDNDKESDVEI
Chain of HDAC3 (Q9Y618 395-489 partner limits assumed, species assumed): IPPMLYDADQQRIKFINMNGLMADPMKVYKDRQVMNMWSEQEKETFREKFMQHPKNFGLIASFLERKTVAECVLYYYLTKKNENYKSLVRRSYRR

[2] = tested on: B6SJL.SOD1-G93A transgenic mouse model of amyotrophic lateral sclerosis; assay: ALS mouse model: neurological scoring; type: in vivo, mice; details: scale of 4-0
Experimental: At week 9, animals were treated either with vehicle or compound I-8 per orally Q.D. Animals were scored (twice in a week until week 12 and every day thereafter until termination) for motor impairment using Vercelli neurological scoring system at the scale of 4-0. Animals were subjected to different tests for motor coordination and muscle strength assessment once in two weeks.
Animals were scored for motor deficits using the scoring system: • 4—Normal/no sign of motor dysfunction • 3—Presence of hindlimb tremors when suspended by tail • 2—Presence of gait abnormalities • […]—Dragging at least one hindlimb • Absence of right reflex within 30 seconds
Animals were scored twice a week from initiation of treatment until week 12 and everyday thereafter until termination.

HDAC4 = HDAC4 (Homo sapiens, UniProt P56524); assay: HDAC selectivity panel: HDAC4; type: biochemical
Chain of HDAC4 (P56524 whole entry, species assumed): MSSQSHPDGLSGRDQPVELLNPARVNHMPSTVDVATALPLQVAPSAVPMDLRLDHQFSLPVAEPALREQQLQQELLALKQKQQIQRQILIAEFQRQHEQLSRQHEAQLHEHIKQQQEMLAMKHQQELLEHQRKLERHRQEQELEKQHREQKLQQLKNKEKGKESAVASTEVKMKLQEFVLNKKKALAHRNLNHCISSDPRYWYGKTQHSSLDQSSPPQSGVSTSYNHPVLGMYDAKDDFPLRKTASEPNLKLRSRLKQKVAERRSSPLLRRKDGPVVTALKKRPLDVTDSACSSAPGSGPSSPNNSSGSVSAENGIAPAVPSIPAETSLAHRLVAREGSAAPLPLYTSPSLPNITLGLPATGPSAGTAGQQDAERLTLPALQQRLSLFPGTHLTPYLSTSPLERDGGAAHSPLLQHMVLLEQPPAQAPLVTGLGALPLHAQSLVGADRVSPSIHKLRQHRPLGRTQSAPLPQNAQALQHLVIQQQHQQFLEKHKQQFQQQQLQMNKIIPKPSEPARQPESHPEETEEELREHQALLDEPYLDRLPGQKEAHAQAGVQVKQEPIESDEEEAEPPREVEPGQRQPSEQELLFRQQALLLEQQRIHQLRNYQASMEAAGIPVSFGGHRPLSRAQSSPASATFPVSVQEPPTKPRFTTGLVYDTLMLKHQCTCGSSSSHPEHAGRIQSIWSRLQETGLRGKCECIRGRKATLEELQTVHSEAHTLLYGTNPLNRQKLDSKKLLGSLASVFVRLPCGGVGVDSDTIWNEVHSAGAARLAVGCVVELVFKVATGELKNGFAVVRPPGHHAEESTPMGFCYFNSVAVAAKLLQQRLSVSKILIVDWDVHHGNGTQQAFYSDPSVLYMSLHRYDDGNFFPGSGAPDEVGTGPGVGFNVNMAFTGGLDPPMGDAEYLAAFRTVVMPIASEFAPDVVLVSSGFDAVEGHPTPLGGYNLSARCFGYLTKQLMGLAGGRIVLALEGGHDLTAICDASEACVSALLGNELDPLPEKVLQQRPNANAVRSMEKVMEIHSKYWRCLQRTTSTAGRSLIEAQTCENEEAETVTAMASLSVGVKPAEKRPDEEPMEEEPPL

[3] = tested on: acetyl-α-tubulin in SH-SY5Y neuroblastoma cells; assay: Western blot of acetylated alpha-tubulin in SH-SY5Y neuroblastoma cells; type: cell-based; details: 1 μM and 10 μM, 24 hours
Experimental: SH-SY5Y neuroblastoma cells were seeded at 1,000,000 cells/well of three 6-well plates and incubated for 24 hours. Cells were treated with 2 control and experimental HDAC6 inhibitors at 1 μM and 10 μM for 24-hours. Following treatment, cells were lysed, and proteins extracted for western blot. Proteins were separated by gel electrophoresis and transferred to nitrocellulose membranes. Membranes were blocked and probed with primary Abs overnight.
acetyl-α-tubulin (Lys40)(D20G3); Cell Signaling Technologies, #5335S
GAPDH; Millipore Sigma, #MAB374
Membranes were probed with secondary Abs for 1 hour and then the blots were imaged using the iBright 1500 (ThermoFisher)

HDAC1 = HDAC1 (Homo sapiens, UniProt Q13547); assay: HDAC selectivity panel: HDAC1; type: biochemical
Chain of HDAC1 (Q13547 whole entry, species assumed): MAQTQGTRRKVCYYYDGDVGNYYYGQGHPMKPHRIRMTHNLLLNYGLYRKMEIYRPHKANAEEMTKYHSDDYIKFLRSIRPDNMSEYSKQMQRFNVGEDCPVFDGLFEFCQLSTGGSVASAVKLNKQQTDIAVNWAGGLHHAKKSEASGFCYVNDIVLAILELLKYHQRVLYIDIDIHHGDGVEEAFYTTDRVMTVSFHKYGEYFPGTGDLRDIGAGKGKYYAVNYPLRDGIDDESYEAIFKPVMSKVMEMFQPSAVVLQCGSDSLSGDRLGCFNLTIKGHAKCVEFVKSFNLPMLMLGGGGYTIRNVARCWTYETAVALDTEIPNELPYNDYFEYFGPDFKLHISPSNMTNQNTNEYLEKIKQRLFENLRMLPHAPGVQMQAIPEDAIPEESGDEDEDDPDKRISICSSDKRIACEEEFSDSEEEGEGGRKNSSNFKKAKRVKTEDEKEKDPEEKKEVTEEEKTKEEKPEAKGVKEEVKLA

CC1CN(Cc2ccc(Nc3nccc(-c4ccc(C(=O)NO)cc4)n3)cc2F)CCO1 (racemic) [Compound I-8, 4-(2-((3-fluoro-4-((2-methylmorpholino)methyl)phenyl)amino)pyrimidin-4-yl)-N-hydroxybenzamide]
Wire Suspension test latency to fall ([1]; G3 15 mg/kg p.o. QD, Week 10): 49.70 ± 8.667 s
Wire Suspension test latency to fall ([1]; G3 15 mg/kg p.o. QD, Week 12): 37.48 ± 9.92 s
Wire Suspension test latency to fall ([1]; G3 15 mg/kg p.o. QD, Week 14): 19.22 ± 7.18 ^ seconds
Wire Suspension test latency to fall ([1]; G3 15 mg/kg p.o. QD, Week 16): 3.71 ± 0.73 s
latency to fall of the wire vs. G2 ([1]; G3 15 mg/kg, week 14): significant reduction in latency to fall of the wire
Wire Suspension test latency to fall ([1]; G4 30 mg/kg (50 mg/kg from day 34) p.o. QD, Week 10): 60.38 ± 10.00 s
Wire Suspension test latency to fall ([1]; G4 30 mg/kg (50 mg/kg from day 34) p.o. QD, Week 12): 45.46 ± 7.98 s
Wire Suspension test latency to fall ([1]; G4 30 mg/kg (50 mg/kg from day 34) p.o. QD, Week 14): 28.13 ± 5.38 ^ seconds
Wire Suspension test latency to fall ([1]; G4 30 mg/kg (50 mg/kg from day 34) p.o. QD, Week 16): 6.46 ± 1.58 s
latency to fall of the wire vs. G2 ([1]; G4, week 14): significant reduction in latency to fall of the wire
IC50 (HDAC3): 990 nM
Neurological scoring ([2]; G3 15 mg/kg p.o. QD, Day 1): 4 ± 0
Neurological scoring ([2]; G3 15 mg/kg p.o. QD, Day 7): 4 ± 0
Neurological scoring ([2]; G3 15 mg/kg p.o. QD, Day 13): 3.89 ± 0.11
Neurological scoring ([2]; G3 15 mg/kg p.o. QD, Day 21): 3.44 ± 0.18
Neurological scoring ([2]; G3 15 mg/kg p.o. QD, Day 28): 3.11 ± 0.26
Neurological scoring ([2]; G3 15 mg/kg p.o. QD, Day 35): 2.22 ± 0.22
Neurological scoring ([2]; G3 15 mg/kg p.o. QD, Day 42): 2.11 ± 0.20
Neurological scoring ([2]; G3 15 mg/kg p.o. QD, Day 49): 1.89 ± 0.20
Neurological scoring ([2]; G3 15 mg/kg p.o. QD, Day 52): 1.56 ± 0.29
Neurological scoring ([2]; G4 30 mg/kg (50 mg/kg from day 34) p.o. QD, Day 1): 4 ± 0
Neurological scoring ([2]; G4 30 mg/kg (50 mg/kg from day 34) p.o. QD, Day 7): 4 ± 0
Neurological scoring ([2]; G4 30 mg/kg (50 mg/kg from day 34) p.o. QD, Day 13): 3.75 ± 0.16
Neurological scoring ([2]; G4 30 mg/kg (50 mg/kg from day 34) p.o. QD, Day 21): 3.5 ± 0.19
Neurological scoring ([2]; G4 30 mg/kg (50 mg/kg from day 34) p.o. QD, Day 28): 3 ± 0.27
Neurological scoring ([2]; G4 30 mg/kg (50 mg/kg from day 34) p.o. QD, Day 35): 2.25 ± 0.25
Neurological scoring ([2]; G4 30 mg/kg (50 mg/kg from day 34) p.o. QD, Day 42): 2.13 ± 0.23
Neurological scoring ([2]; G4 30 mg/kg (50 mg/kg from day 34) p.o. QD, Day 49): 1.88 ± 0.30
Neurological scoring ([2]; G4 30 mg/kg (50 mg/kg from day 34) p.o. QD, Day 52 (n = 6-8)): 2 ± 0.26
IC50 (HDAC4): 11100 nM
acetylation of α-tubulin (Western blot) [3]: induce acetylation of α-tubulin in SH-SY5Y neuroblastoma cells in a dose-dependent manner; also recorded: induces acetylation α-tubulin
IC50 (HDAC1): 1180 nM
